Consider one compound from publication PMC3076215 (Biochemistry, 2011).

One may read the Kd as a measure of binding affinity in units of concentration. Higher therefore signals lower affinity.

The structures appear in SMILES notation.

The assay has as its target T1, Carbon monoxide dehydrogenase (CODH) (Afipia carboxidovorans, UniProt P19920).
T1 sequence (P19920 1-288): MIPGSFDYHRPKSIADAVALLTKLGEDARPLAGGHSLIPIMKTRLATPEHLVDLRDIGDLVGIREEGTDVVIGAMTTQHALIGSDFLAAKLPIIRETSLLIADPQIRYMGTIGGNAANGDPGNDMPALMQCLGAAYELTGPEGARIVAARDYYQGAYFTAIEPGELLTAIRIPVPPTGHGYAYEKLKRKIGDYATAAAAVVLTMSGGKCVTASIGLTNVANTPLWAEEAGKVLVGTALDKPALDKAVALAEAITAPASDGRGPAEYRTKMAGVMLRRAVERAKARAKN
T1 sequence (P19919 1-809 partner): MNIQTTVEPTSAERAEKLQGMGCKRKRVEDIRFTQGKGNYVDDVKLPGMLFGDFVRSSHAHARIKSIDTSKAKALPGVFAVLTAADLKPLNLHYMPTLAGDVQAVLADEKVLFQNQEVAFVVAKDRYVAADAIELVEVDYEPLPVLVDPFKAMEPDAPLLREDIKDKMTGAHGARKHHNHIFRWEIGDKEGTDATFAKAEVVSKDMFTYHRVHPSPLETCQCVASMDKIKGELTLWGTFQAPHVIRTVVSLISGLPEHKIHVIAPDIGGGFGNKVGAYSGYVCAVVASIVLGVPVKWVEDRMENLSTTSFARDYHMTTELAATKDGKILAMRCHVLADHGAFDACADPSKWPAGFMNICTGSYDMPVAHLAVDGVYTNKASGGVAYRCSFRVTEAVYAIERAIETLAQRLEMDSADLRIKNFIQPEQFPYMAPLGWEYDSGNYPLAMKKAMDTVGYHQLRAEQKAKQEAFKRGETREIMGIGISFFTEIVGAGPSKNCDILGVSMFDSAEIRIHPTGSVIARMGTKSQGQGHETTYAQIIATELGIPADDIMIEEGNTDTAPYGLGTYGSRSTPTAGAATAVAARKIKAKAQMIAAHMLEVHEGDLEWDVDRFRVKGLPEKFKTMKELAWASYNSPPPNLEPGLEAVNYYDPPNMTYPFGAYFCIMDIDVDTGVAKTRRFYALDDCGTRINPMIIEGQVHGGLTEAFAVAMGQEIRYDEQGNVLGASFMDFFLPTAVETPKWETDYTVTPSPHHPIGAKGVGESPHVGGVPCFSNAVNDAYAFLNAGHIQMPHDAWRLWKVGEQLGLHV
T1 sequence (P19921 1-166 partner): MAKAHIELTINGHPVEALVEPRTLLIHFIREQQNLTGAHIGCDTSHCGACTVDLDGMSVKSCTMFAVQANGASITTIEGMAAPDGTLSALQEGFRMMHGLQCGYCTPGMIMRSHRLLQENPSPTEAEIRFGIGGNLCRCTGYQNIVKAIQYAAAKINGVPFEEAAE
Briefly: UV-vis difference titration at […] nm. Type of assay: binding.

`O=C1C=CC(=O)C=C1` [1,4-benzoquinone] displayed a Kd of 100 µM.
